Laboratory results from patent publication US11142515B2, “Pyrazolyl-ureas as kinase inhibitors” (RESPIVERT LIMITED, priority 2014, dated 2021).
pIC50: −log10 of the molar value.

Columns and labels:
c-Src = molecular target: T1, c-Src (Homo sapiens, UniProt P12931); experiment: c-Src enzyme inhibition (Z-LYTE FRET); format: biochemical; conditions: Table 2A
T1 construct: purchased Life Technologies
Experimental: (§1) The enzyme inhibitory activities of compounds disclosed herein were determined by FRET using synthetic peptides labelled with both donor and acceptor fluorophores (Z-LYTE, Life Technologies, Paisley, UK).
(§2) The relevant enzyme (1000 ng/mL, 1400 ng/mL or 2000 ng/mL respectively, 2.5 μL) was incubated with the test compound (either 40 μg/mL, 12 μg/mL, 4 μg/mL, 1.2 μg/mL, 0.4 μg/mL, 0.12 μg/mL, 0.04 μg/mL, 0.012 μg/mL, 0.004 μg/mL or 0.0012 μg/mL, 2.5 μL each) for 2 h at RT. The FRET peptides (8 μM, 2.5 μL), and appropriate ATP solutions (2.5 μL, 800 μM for c-Src, and 60 μM ATP for HCK and Syk) were then added to the enzyme/compound mixtures and incubated for 1 h at RT. Development reagent (protease, 5 μL) was added for 1 h prior to detection in a fluorescence microplate reader (EnVision, Perkin Elmer).
(§3) In all cases, the site-specific protease cleaves non-phosphorylated peptide only and eliminates the FRET signal. Phosphorylation levels of each reaction were calculated using the ratio of coumarin emission (donor) over fluorescein emission (acceptor), for which low ratios indicate high phosphorylation and high ratios indicate low phosphorylation levels.

Syk = molecular target: T2, Syk (Homo sapiens, UniProt P43405); experiment: Syk enzyme inhibition (Z-LYTE FRET); format: biochemical; conditions: Table 2A
T2 construct: purchased Life Technologies
Experimental: as §1, §2, §3

[1] = test system: ICAM-1 expression in BEAS2B cells; experiment: Poly I:C-induced ICAM-1 expression in BEAS2B cells; format: cell-based; conditions: Homo sapiens, BEAS-2B, read-out: PolyIC/ICAM1 IC50 (BEAS2B)
Experimental: Poly I:C was used in these studies as a simple, RNA virus mimic. Poly I:C-Oligofectamine mixture (2% Oligofectamine±1 μg/mL Poly I:C, 25 μL; Life Technologies and Invivogen Ltd., San Diego, Calif., respectively) was transfected into BEAS2B cells (human bronchial epithelial cells, ATCC). Cells were pre-incubated with final concentrations of test compounds for 2 h and the level of ICAM-1 expression on the cell surface was determined by cell-based ELISA. At a time point 18 h after poly I:C transfection, cells were fixed with 4% formaldehyde in PBS (100 μL) and then endogenous peroxidase was quenched by the addition of washing buffer (100 μL, 0.05% Tween in PBS: PBS-Tween) containing 0.1% sodium azide and 1% hydrogen peroxide. Cells were washed with wash-buffer (3×200 μL). After blocking the wells with 5% milk in PBS-Tween (100 μL) for 1 h, the cells were incubated with anti-human ICAM-1 antibody (50 μL; Cell Signaling Technology, Danvers, Mass.) in 1% BSA PBS overnight at 4° C.
The cells were washed with PBS-Tween (3×200 μL) and incubated with the secondary antibody (100 μL; HRP-conjugated anti-rabbit IgG, Dako Ltd., Glostrup, Denmark). The cells were then incubated with of substrate (50 μL) for 2-20 min, followed by the addition of stop solution (50 μL, 1N H2SO4). The ICAM-1 signal was detected by reading the absorbance at 450 nm against a reference wavelength of 655 nm using a spectrophotometer. The cells ware then washed with PBS-Tween (3×200 μL) and total cell numbers in each well were determined by reading absorbance at 595 nm after Crystal Violet staining (50 μL of a 2% solution in PBS) and elution by 1% SDS solution (100 μL) in PBS. The measured OD 450-655 readings were corrected for cell number by dividing with the OD595 reading in each well. The inhibition of ICAM-1 expression was calculated at each concentration of test compound by comparison with vehicle control.

d-U937 cells = experiment: Cell viability: MTT assay in differentiated U937 cells; format: cell-based, human; conditions: 10 μg/mL
Experimental: Differentiated U937 cells were pre-incubated with each test compound (final concentration 10 μg/mL in 200 μL media indicated below) under two protocols: the first for 4 h in 5% FCS RPMI1640 media and the second in 10% FCS RPMI1640 media for 24 h. The supernatant was replaced with new media (200 μL) and MTT stock solution (10 μL, 5 mg/mL) was added to each well. After incubation for 1 h the media were removed, DMSO (200 μL) was added to each well and the plates were shaken lightly for 1 h prior to reading the absorbance at 550 nm. The percentage loss of cell viability was calculated for each well relative to vehicle (0.5% DMSO) treatment. Consequently an apparent increase in cell viability for drug treatment relative to vehicle is tabulated as a negative percentage.

T1 sequence (P12931 whole entry): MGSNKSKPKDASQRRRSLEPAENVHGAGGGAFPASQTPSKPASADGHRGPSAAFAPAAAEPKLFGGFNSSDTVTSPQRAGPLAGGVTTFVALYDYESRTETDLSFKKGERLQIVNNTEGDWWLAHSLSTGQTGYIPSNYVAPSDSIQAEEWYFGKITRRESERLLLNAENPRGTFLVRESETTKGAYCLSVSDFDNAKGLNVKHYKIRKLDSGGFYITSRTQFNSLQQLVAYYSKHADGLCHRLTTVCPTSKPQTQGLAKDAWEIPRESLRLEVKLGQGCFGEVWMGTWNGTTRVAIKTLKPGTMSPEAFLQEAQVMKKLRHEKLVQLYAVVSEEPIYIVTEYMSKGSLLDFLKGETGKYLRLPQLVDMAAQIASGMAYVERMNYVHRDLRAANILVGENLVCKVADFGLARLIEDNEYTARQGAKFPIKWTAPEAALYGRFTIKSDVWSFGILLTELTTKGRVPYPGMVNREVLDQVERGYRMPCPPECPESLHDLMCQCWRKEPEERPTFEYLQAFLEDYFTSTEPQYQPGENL

SMILES | pIC50 (c-Src) | pIC50 (Syk) | pIC50 [1] | MTT Assay Cell viability at time point indicated in d-U937 Cells, 4 h (d-U937 cells) | MTT Assay Cell viability at time point indicated in d-U937 Cells, 24 h (d-U937 cells)
Cc1ccc(-n2nc(C(C)(C)C)cc2NC(=O)Nc2ccc(OCc3ccnc(Nc4cnc(CO)cn4)c3)c3ccccc23)s1 [Example 26] | 7.25 | 5.80 | 6.01 | − (−ve and +ve indicate the value is below and above, respectively, the no significant effect threshold defined as 30% inhibition at 10 μg/mL at the time point indicated) | + (−ve and +ve indicate the value is below and above, respectively, the no significant effect threshold defined as 30% inhibition at 10 μg/mL at the time point indicated)
Cc1cccc(-n2nc(C(C)(C)C)cc2NC(=O)Nc2ccc(OCc3ccnc(Nc4cnccn4)c3)c3ccccc23)c1 [Example 40] | 7.07 | < 4.78 | 6.20 | − (−ve and +ve indicate the value is below and above, respectively, the no significant effect threshold defined as 30% inhibition at 10 μg/mL at the time point indicated) | − (−ve and +ve indicate the value is below and above, respectively, the no significant effect threshold defined as 30% inhibition at 10 μg/mL at the time point indicated)
Cc1cc(-n2nc(C(C)(C)C)cc2NC(=O)Nc2ccc(OCc3ccnc(Nc4cnccn4)c3)c3ccccc23)cs1 (single isomer, unassigned) [Example 31] | 6.81 | < 4.78 | 6.06 | − (−ve and +ve indicate the value is below and above, respectively, the no significant effect threshold defined as 30% inhibition at 10 μg/mL at the time point indicated) | − (−ve and +ve indicate the value is below and above, respectively, the no significant effect threshold defined as 30% inhibition at 10 μg/mL at the time point indicated)
Cc1ccc(-n2nc(C(C)(C)C)cc2NC(=O)Nc2ccc(OCc3ccnc(Nc4cnccn4)c3)c3ccccc23)s1 [Example 13] | 6.89 | < 4.78 | 6.25 | − (−ve and +ve indicate the value is below and above, respectively, the no significant effect threshold defined as 30% inhibition at 10 μg/mL at the time point indicated) | − (−ve and +ve indicate the value is below and above, respectively, the no significant effect threshold defined as 30% inhibition at 10 μg/mL at the time point indicated)
CC(C)(C)c1cc(NC(=O)Nc2ccc(OCc3ccnc(Nc4cnccn4)c3)c3ccccc23)n(-c2ccc(Cl)cc2)n1 [Example 45] | 5.10 | < 4.79 | 5.84 | − (−ve and +ve indicate the value is below and above, respectively, the no significant effect threshold defined as 30% inhibition at 10 μg/mL at the time point indicated) | − (−ve and +ve indicate the value is below and above, respectively, the no significant effect threshold defined as 30% inhibition at 10 μg/mL at the time point indicated)

The next lines start with results.

pIC50 (c-Src) | pIC50 (Syk) | SMILES | pIC50 [1] | MTT Assay Cell viability at time point indicated in d-U937 Cells, 4 h (d-U937 cells) | MTT Assay Cell viability at time point indicated in d-U937 Cells, 24 h (d-U937 cells)
6.27 | < 4.79 | CCc1ccc(-n2nc(C(C)(C)C)cc2NC(=O)Nc2ccc(OCc3ccnc(Nc4cnccn4)c3)c3ccccc23)cc1 [Example 42] | 6.70 | − (−ve and +ve indicate the value is below and above, respectively, the no significant effect threshold defined as 30% inhibition at 10 μg/mL at the time point indicated) | − (−ve and +ve indicate the value is below and above, respectively, the no significant effect threshold defined as 30% inhibition at 10 μg/mL at the time point indicated)
7.21 | < 4.84 | Cc1ccc(-n2nc(C(C)(C)C)cc2NC(=O)Nc2ccc(OCc3ccnc(Nc4cnc(C(=O)N5CCCC5)cn4)c3)c3ccccc23)cc1 [Example 36] | 6.73 | − (−ve and +ve indicate the value is below and above, respectively, the no significant effect threshold defined as 30% inhibition at 10 μg/mL at the time point indicated) | − (−ve and +ve indicate the value is below and above, respectively, the no significant effect threshold defined as 30% inhibition at 10 μg/mL at the time point indicated)
7.47 | < 4.88 | Cc1ccc(-n2nc(C(C)(C)C)cc2NC(=O)Nc2ccc(OCc3ccnc(Nc4cnc(C(=O)NCCN5CCOCC5)cn4)c3)c3ccccc23)cc1 [Example 17] | 6.36 | − (−ve and +ve indicate the value is below and above, respectively, the no significant effect threshold defined as 30% inhibition at 10 μg/mL at the time point indicated) | − (−ve and +ve indicate the value is below and above, respectively, the no significant effect threshold defined as 30% inhibition at 10 μg/mL at the time point indicated)
6.84 | < 4.84 | COCCNC(=O)c1cnc(Nc2cc(COc3ccc(NC(=O)Nc4cc(C(C)(C)C)nn4-c4ccc(C)cc4)c4ccccc34)ccn2)cn1 [Example 3] | 6.34 | − (−ve and +ve indicate the value is below and above, respectively, the no significant effect threshold defined as 30% inhibition at 10 μg/mL at the time point indicated) | − (−ve and +ve indicate the value is below and above, respectively, the no significant effect threshold defined as 30% inhibition at 10 μg/mL at the time point indicated)
> 9.32 | < 4.80 | Cc1ccc(-n2nc(C(C)(C)C)cc2NC(=O)Nc2ccc(OCc3ccnc(Nc4cnc(CN)cn4)c3)c3ccccc23)cc1 [Example 5, 1-(4-((2-((5-(Aminomethyl)pyrazin-2-yl)amino)pyridin-4-yl)methoxy)naphthalen-1-yl)-3-(3-(tert-butyl)-1-(p-tolyl)-1H-pyrazol-5-yl)urea] | 6.32 | − (−ve and +ve indicate the value is below and above, respectively, the no significant effect threshold defined as 30% inhibition at 10 μg/mL at the time point indicated) | + (−ve and +ve indicate the value is below and above, respectively, the no significant effect threshold defined as 30% inhibition at 10 μg/mL at the time point indicated)
7.72 | < 4.82 | Cc1ccc(-n2nc(C(C)(C)C)cc2NC(=O)Nc2ccc(OCc3ccnc(Nc4cnc(CC(N)=O)cn4)c3)c3ccccc23)cc1 [Example 30] | 6.94 | − (−ve and +ve indicate the value is below and above, respectively, the no significant effect threshold defined as 30% inhibition at 10 μg/mL at the time point indicated) | − (−ve and +ve indicate the value is below and above, respectively, the no significant effect threshold defined as 30% inhibition at 10 μg/mL at the time point indicated)
